In US6395261B1, “Walnut seed meal extract” (Gattefosse S.A., priority 1998, dated 2002):

Legend:
elastase = assay: Elastase activity of cellular extracts of fibroblasts (SANA substrate); format: biochemical, human; details: positive control at 2 mM
Experimental: This activity is evaluated on cellular extracts of fibroblasts of human dermis, isolated from the foreskin and cultured according to routine techniques at 37° C., in a humid air-CO2 (95/5%) atmosphere.
The fibroblasts are cultured in DMEM medium supplemented with fetal calf serum (10% FCS) and passaged regularly until a sufficient biomass is obtained.
To carry out the test, the cells are detached from their support by trypsinization. After centrifugation and suitable treatment, the cellular extracts are recovered.
The elastase activity of the cellular extracts was evaluated using Suc-(L-Ala)3-p-nitroanilide (SANA) as substrate. Aliquots of the cellular extract are preincubated at 37° C. in TEA (triethanolamine) buffer at pH=7.8, alone or in buffer containing various concentrations of extracts.
After incubation, a solution of SANA is added to the reaction mixture.
The optical densities at 405 nm are recorded for 1 hour 30 min to 2 hours.
A positive control was introduced into the trial (dichloroisocoumarin at 2 mM).

human skin fibroblasts = assay: Incorporation of 3H-leucine into protein fractions of fibroblasts in monolayer culture; format: cell-based; details: vitamin C reference product
Experimental: After culture of the human skin fibroblasts until the cells become confluent, the culture medium is replaced by a medium containing 2% FCS (Fetal Calf Serum) with:
or vitamin C (reference product).
A batch of untreated control culture is performed in parallel.
After 24 hours of incubation at 37° C., labeled leucine (^3H-leucine) is added to the culture medium and the medium is left to incubate for an additional 48 hours. The following are recovered separately:
on the one hand, the culture medium,
on the other hand, the cell lysate after cellular lysis,
and finally the insoluble fraction (membranes, matrix deposited).
The macromolecules are extracted and then the incorporation of the radioactive precursor of these molecules is measured by liquid scintillation.

[1] = macromolecules extracted from the culture medium
[2] = macromolecules extracted from the intracellular medium

SMILES | Inhibition (elastase; elastase activity) | mU elastase/10^6 cell (elastase) | % Control (human skin fibroblasts; [1]) | Counts/minute (human skin fibroblasts; [1]) | % Control (human skin fibroblasts; [2]) | Counts/minute (human skin fibroblasts; [2])
O=c1oc(Cl)c(Cl)c2ccccc12 [DCI, dichloroisocoumarin] | 37 | 0.431 mU elastase/10^6 cell | – | – | – | –
O=C1O[C@H]([C@@H](O)CO)C(O)=C1O [Vitamin C, vitamin C] | – | – | 132 % Control | 34748 ± 2599 Counts/minute | 96 % Control | 35953 ± 4349 Counts/minute
